Like-named read-outs stand apart in the source and are kept apart here.
What was measured:
primary rat AEC [1] = assay: Fas ligand-induced apoptosis of primary rat alveolar epithelial cells; assay type: cell-based; conditions: captopril, lisinopril 500 ng/ml; caspase inhibitors 60 uM
Protocol: Lung Cell Isolation and Detection of Apoptosis In Vitro. Primary alveolar epithelial cells (AEC) were isolated from adult male Wistar rats as described above. The primary cells were studied at day two of culture, a time at which they are type II cell-like by accepted morphologic and biochemical criteria, see Paine et al., Am. J. Physiol. […] All cells were seeded in 24-well or 6-well chambers, and all experiments were conducted at subconfluent densities of 80-90% in serum-free Ham's F12 medium. Test reagents were diluted with Ham's F12 medium and were applied for 20 hours at 37° C. in a 5% CO2 incubator.
Detection of apoptotic cells with propidium iodide (PI) was conducted as described above, following digestion of ethanol-fixed cells with DNAse-free RNAse in PBS containing 5 ug/ml PI.
Expression of FAS by alveolar epithelial cells is observed during bleomycin-induced fibrogenesis in mice. See Hagimoto, et al., Am. J. Respir. Cell Mol. Biol. 16:91-101 (1997). […] Apoptosis was detected by quantitation of fragmented nuclei (see above).
Cell Culture and Detection of Apoptosis. The human lung adenocarcinoma cell line A549 was obtained from American Type Culture Collection and cultured in Ham's F12 medium supplemented with 10% fetal bovine serum (FBS). Primary alveolar epithelial cells were isolated from adult male Wistar rats as described earlier (Uhal, B. D., I. Joshi, A. True, S. Mundle, A. Raza, A. Pardo and M. Selman. Fibroblasts isolated after fibrotic lung injury induce apoptosis of alveolar epithelial cells in vitro. Am. J. Physiol. 269:L819-L828, 1995); Wang, R., A. Zagariya, 0. Ibarra-Sunga, C. […] Am. J. Physiol. 276:L885-L889 (1999)). […] All cells were seeded in 24-well or 6-well chambers, and all experiments were conducted at subconfluent densities of 80-90% in serum-free Ham's F12 medium. Test reagents were diluted with serum-free Ham's F12 medium and were applied under serum-free conditions for 20 hours at 37C. in a 5% CO2 incubator. Detection of apoptotic cells with propidium iodide (PI) was conducted as described above Am. J. Physiol. 275:L1013-1017 (1998); Uhal et al., following digestion of ethanol-fixed cells with DNAse-free RNAse in PBS containing 5 μg/ml PI. In all assays, detached cells were retained by centrifugation of the culture vessels during fixation with 70% ethanol, or by retention of culture media and recovery by centrifugation before assay.
Apoptosis was detected by nuclear fragmentation as described above.

primary rat AEC [2] = assay: Angiotensin II-induced apoptosis in primary rat AEC (nuclear fragmentation, PI); assay type: cell-based; conditions: ANGII 5.0 uM; saralasin 50 ug/ml, lisinopril 500 ng/ml
Text: Cell Culture. The human lung adenocarcinoma cell line A549 was obtained from American Type Culture Collection and cultured in Ham's F12 medium supplemented with 10% fetal bovine serum (FBS). Primary alveolar epithelial cells were isolated from adult male Wistar rats as described in Uhal et al., Am. J. Physiol. Suppl. (Oct.) 261:110-117 (1991) and Uhal et al., Am. J. Physiol. 269:L819-L828 (1995). The primary cells were studied at day two of culture, a time at which they are type II cell-like by accepted morphologic and biochemical criteria, see Uhal, Am. J. Physiol. 272:L1031-L1045 (1997). […] J. Physiol. Suppl. (October) 261:110-117 (1991). All cells were seeded in 24-well or 6-well chambers, and all experiments were conducted at subconfluent densities of 80-90% in serum-free Ham's F12 medium. Test reagents were diluted with Ham's F12 medium and were applied for 20 h at 37° C. in a 5% CO2 incubator.
Detection of Apoptosis. Detection of apoptotic cells with propidium iodide (PI) was conducted as described in Uhal, et al., Am. J. Physiol. 275:L1013-1017 (1998) following digestion of ethanol-fixed cells with DNAse-free RNAse in PBS containing 5 ug/ml PI. Assay of Annexin V binding by flow cytometry was performed essentially as described for human lung fibroblasts in Uhal, et al., Am. J. Physiol. 275:L998-L1005 (1998) after trypsinization of cells from culture vessels. Assay of Caspase-3 activity was performed on viable suspension cultures as reported in Uhal, et al., Am. J. Physiol. 275:L1013-1017 (1998). In all assays, detached cells were retained by centrifugation of the culture vessels during fixation with 70% ethanol, or by retention of culture media and recovery by centrifugation before assay.
(§1) For microscopy, cells were cultured on glass cover slips, incubated with test reagents and fixed with 70% ethanol. The fixed cells were immunolabeled overnight at 4° C. with monoclonal antibodies to cytokeratins 7 and 19 (Chemicon International, Temecula, Calif.), and then for one hour at 37° C. with anti-mouse IgG-rhodamine and DNAse-free RNAse (Boehringer Mannheim, Indianapolis, Ind.) The cover slips were then rinsed in distilled water three times and mounted under Fluoromount Solution (Southern Biotechnology Associates, Birmingham, Ala.) containing 5 ug/ml propidium iodide. Photomicroscopy was performed as described in Uhal, et al., Am. J. Physiol. 275:L1013-1017 (1998).
Apoptosis in alveolar epithelial cells was quantitated by fluorescence detection of chromatin condensation and nuclear fragmentation in alcohol-fixed cells stained with propidium iodide. See Uhal, et al., Am. J. Physiol. 275:L1013-1017 (1998). […] After 20 h, the culture vessel was centrifuged to retain detached cells and labeled with anticytokeratin antibodies and propidium iodide. […] Double labeling with PI and monoclonal antibodies to cytokeratins 7 and 19 identified cells with both apoptotic nuclear morphology and positive anticytokeratin immunoreactivity.

A549 cells [3] = test system: A549 cells
Protocol: (§2) The human lung adenocarcinoma cell line A549 (ATCC) was cultured in Ham's F12 medium supplemented with 10% fetal bovine serum (FBS). Primary alveolar epithelial cells were isolated from adult male Wistar rats. The primary cells were studied at day two of culture, a time at which they are type II cell-like by accepted morphologic and biochemical criteria. […] All cells were seeded in 24-well or 6-well chambers, and all experiments were conducted at subconfluent densities of 80-90% in serum-free Ham's F12 medium. Test reagents were diluted with Ham's F12 medium and were applied for 20 hours at 37C. in a 5% CO2 incubator.
(§3) Apoptotic cells were detected using propidium iodide (PI) following digestion of ethanol-fixed cells with DNAse-free RNAse in PBS containing 5 ug/ml PI. […] In replicate culture vessels, necrosis was detected as the loss of exclusion of PI after application of the vital dye directly to the cell culture medium at 5 ug/ml final concentration. Red fluorescent (PI-POSITIVE) cells (>570 nm) were scored over the subsequent hour as a percentage of the total cells in any given field. A minimum of 4 separate fields were scored in each of three separate culture vessels per experiment condition; all experiments were performed at least twice and the data were compiled. Although all necrotic cells are PI-positive, some apoptotic cells may also take up the dye but these comprise a minor fraction of the total dead cell population.
(§4) In all assays, detached cells were retained by centrifugation of the culture vessel at 300×g for 10 minutes with a centrifuge rotor designed for culture plates. For detection of necrosis (dye exclusion of PI), the PI was added directly to the cell culture medium immediately before centrifugation of the culture vessel. For detection of apoptosis, ethanol was added directly to the cell culture medium to a final concentration of 70% immediately before the centrifugation. Afterward, the ethanol was carefully removed and the total cell population (attached plus sedimented detached cells) were stained with PI as described above.

primary rat AEC [4] = test system: primary rat AEC
Protocol: as §2, §3, §4

primary rat AECs = assay: TNF-α-induced apoptosis of primary rat AECs; assay type: cell-based; conditions: purified TNF-α
human A549 cells = assay type: cell-based; conditions: A549, 20 h
Protocol: (§5) The human lung adenocarcinoma cell line A549 (ATCC) was cultured in Ham's F12 medium supplemented with 10% fetal bovine serum (FBS). Primary alveolar epithelial cells were isolated from adult male Wistar rats. The primary cells were studied at day two of culture, a time at which they are type II cell-like by accepted morphologic and biochemical criteria. All primary cell preparations were of better than 90% purity assessed by acridine orange staining. All cells were seeded in 24-well or 6-well chambers, and all experiments were conducted at subconfluent densities of 80-90% in serum-free Ham's F12 medium. Test reagents were diluted with Ham's F12 medium and were applied for 20 hours at 37C. in a 5% CO2 incubator.
Apoptotic cells were detected using propidium iodide (PI) following digestion of ethanol-fixed cells with DNAse-free RNAse in PBS containing 5 ug/ml PI. […] In replicate culture vessels, necrosis was detected as the loss of exclusion of PI after application of the vital dye directly to the cell culture medium at 5 ug/ml final concentration. Red fluorescent (PI-POSITIVE) cells (>570 nm) were scored over the subsequent hour as a percentage of the total cells in any given field. A minimum of 4 separate fields were scored in each of three separate culture vessels per experiment condition; all experiments were performed at least twice and the data were compiled. […]

[5] = test system: primary cultures of rat AEC; assay type: cell-based; conditions: primary rat AEC, 20 h
Protocol: as §5

A549 cells [6] = assay: Amiodarone-induced net cell loss in A549 cultures; assay type: cell-based, human; conditions: 20 hours exposure
Protocol: (§6) Primary alveolar epithelial cells were isolated from adult male Wistar rats. The primary cells were studied at day two of culture, a time at which they are type II cell-like by accepted morphologic and biochemical criteria. All primary cell preparations were of better than 90% purity assessed by acridine orange staining. All cells were seeded in 24-well or 6-well chambers, and all experiments were conducted at subconfluent densities of 80-90% in serum-free Ham's F12 medium. Test reagents were diluted with Ham's F12 medium and were applied for 20 hours at 37C. in a 5% CO2 incubator.
(§7) Importantly, unattached cells were recovered and included in the analyses, and thus the data represent true loss of cells rather than simple detachment from the substratum.

primary rat AEC [7] = assay: Amiodarone-induced net cell loss in primary rat AEC cultures; assay type: cell-based; conditions: 20 hours exposure
Protocol: as §6, §7

[8] = AIPT; cited from earlier work
primary rat AEC [9] = assay: Angiotensinogen-induced apoptosis in primary rat AEC; assay type: cell-based; conditions: 5 uM
Protocol: Cell Culture. […] J. Physiol. Suppl. […] J. Physiol. […] J. Physiol. […] J. Physiol. Suppl.
Detection of Apoptosis. […] J. Physiol. […] Assay of Annexin V binding by flow cytometry was performed essentially as described for human lung fibroblasts in Uhal, et al., Am. J. Physiol. […] Assay of Caspase-3 activity was performed on viable suspension cultures as reported in Uhal, et al., Am. J. Physiol.
as §1, with “Physiol.” for “Physiol. 275:L1013-1017 (1998).”

A549 cell line = assay: Angiotensinogen-induced apoptosis in A549 cells; assay type: cell-based, human
Protocol: Cell Culture. […] J. Physiol. Suppl. (Oct.) 261:110-117 (1991) and Uhal et al., Am. J. Physiol. 269:L819-L828 (1995). […] J. Physiol. 272:L1031-L1045 (1997). […] J. Physiol. Suppl. (October) 261:110-117 (1991).
Detection of Apoptosis. […] J. Physiol. […] Assay of Annexin V binding by flow cytometry was performed essentially as described for human lung fibroblasts in Uhal, et al., Am. J. Physiol. 275:L998-L1005 (1998) after trypsinization of cells from culture vessels. Assay of Caspase-3 activity was performed on viable suspension cultures as reported in Uhal, et al., Am. J. Physiol. 275:L1013-1017 (1998).
as §1

## CCCCc1nc(Cl)c(CO)n1Cc1ccc(-c2ccccc2-c2nn[nH]n2)cc1 [Losartan, losartan]
Primary rat AEC [1]
  inhibition of Fas ligand-induced apoptosis of primary rat AEC (words): abrogated
Primary rat AEC [2]
  inhibition of ANGII-induced apoptosis of primary rat AEC: abrogated
A549 cells [3]; captopril 500 ng/ml, saralasin 50 ug/ml, Losartan 5 pg/ml
  inhibition of amiodarone-induced apoptosis: completely blocked
Primary rat AEC [4]; captopril 500 ng/ml, saralasin 50 ug/ml, Losartan 5 pg/ml, amiodarone 2.5 ug/ml for chelerythrine, orthovanadate
  inhibition of amiodarone-induced apoptosis: completely blocked
Primary rat AECs
  inhibition of TNF-α-induced apoptosis: abrogated

## CCCCc1oc2ccccc2c1C(=O)c1cc(I)c(OCCN(CC)CC)c(I)c1 [amiodarone]
Human A549 cells
  concentration at which necrosis / significant cell death begins: 10000 ng/mL
[5]
  concentration at which significant cell death / toxicity begins: 2500 ng/mL
[5]; listed as AM
  concentration at which significant cell death / toxicity begins: 1000 ng/mL
A549 cells [3]; 10 ug/ml AM, 5 ug/ml DES
  maximum increase in apoptotic cells: 10 fold
A549 cells [3]; A549
  concentration at which apoptosis begins: 10000 ng/mL
Primary rat AEC [4]; 15 ug/ml AM, 5 ug/ml DES
  induction of apoptosis: 16 fold
Primary rat AEC [4]; primary AEC
  concentration at which significant apoptosis begins: 2500 ng/mL
A549 cells [6]
  effect on total cell number: significantly decreased
Primary rat AEC [7]
  effect on total cell number: significantly decreased
[8]
  estimated mortality of affected patients: 5 to 10%

B1: angiotensinogen: purified angiotensinogen, serum globulin precursor of angiotensin I (protein, UniProt P01019 25-476, looked up)
Angiotensinogen: DRVYIHPFHLVIHNESTCEQLAKANAGKPKDPTFIPAPIQAKTSPVDEKALQDQLVLVAAKLDTEDKLRAAMVGMLANFLGFRIYGMHSELWGVVHGATVLSPTAVFGTLASLYLGALDHTADRLQAILGVPWKDKNCTSRLDAHKVLSALQAVQGLLVAQGRADSQAQLLLSTVVGVFTAPGLHLKQPFVQGLALYTPVVLPRSLDFTELDVAAEKIDRFMQAVTGWKTGCSLMGASVDSTLAFNTYVHFQGKMKGFSLLAEPQEFWVDNSTSVSVPMLSGMGTFQHWSDIQDNFSVTQVPFTESACLLLIQPHYASDLDKVEGLTFQQNSLNWMKKLSPRTIHLTMPQLVLQGSYDLQDLLAQAELPAILHTELNLQKLSNDRIRVGEVLNSIFFELEADEREPTESTQQLNKPEVLEVTLNRPFLFAVYDQSATALHFLGRVANPLSTA
Primary rat AEC [9]
  induction of apoptosis by angiotensinogen: induced apoptosis with the same potency as did ANGII
A549 cell line
  induction of apoptosis by angiotensinogen: not capable of inducing apoptosis

From patent US20030113330A1, “Methods for treating pulmonary fibrosis” (priority 1999, published 2003)
